Assay results: US20240140958A1, “FUSED QUADRACYCLIC COMPOUNDS, COMPOSITIONS AND USES THEREOF” (Tabomedex Biosciences, Inc., priority 2021, published 2024)

Target: T1, MAPKAPK2 Recombinant Human Protein (Homo sapiens, UniProt P49137)
T1 construct: purchased ThermoFisher pv3317
Test: MK2 kinase assay (Z'-LYTE kinase assay kit)
Conditions: inhibition of MK2 biochemical activity; 90 min incubation at room temperature
Method: Materials and Reagents for Measuring Inhibition of MK2 Biochemical Activity: • 1) Assay plate: 384 Well Low Volume Black Round Bottom Polystyrene NBS Microplate (Corning, Cat.No. 4514) • 2) MK2 kinase assay kit: Z' LYTE KINASE ASSAY KIT (ThermoFisher, Cat.No. pv3177) • 3) MAPKAPK2 Recombinant Human Protein (ThermoFisher, Cat.No. pv3317) • 4) DMSO (Vetec, Cat.No. V900090) • 5) DTT (Sigma, Cat.No. D0632)
MK2 Kinase Assay Procedure: • 1) Dispense 5 μl Kinase/Peptide Mixture to each wells of 384-well plate • 2) Add 2.5 μl 4× Test Compound to each well • 3) Add 2.5 μl 4× ATP Solution to each well • 4) After 90 minutes incubation at room temperature, add 5 μl Development Solution to each well • 5) After 60 minutes incubation at room temperature, add 5 μl stop Solution to each well • 6) Measure the Coumarin (Ex. 400 nm, Em. 445 nm) and Fluorescein (Ex. 400 nm, Em. 520 nm) emission signals on an Envision plate reader (PerkinElmer)

T1 sequence (P49137 whole entry): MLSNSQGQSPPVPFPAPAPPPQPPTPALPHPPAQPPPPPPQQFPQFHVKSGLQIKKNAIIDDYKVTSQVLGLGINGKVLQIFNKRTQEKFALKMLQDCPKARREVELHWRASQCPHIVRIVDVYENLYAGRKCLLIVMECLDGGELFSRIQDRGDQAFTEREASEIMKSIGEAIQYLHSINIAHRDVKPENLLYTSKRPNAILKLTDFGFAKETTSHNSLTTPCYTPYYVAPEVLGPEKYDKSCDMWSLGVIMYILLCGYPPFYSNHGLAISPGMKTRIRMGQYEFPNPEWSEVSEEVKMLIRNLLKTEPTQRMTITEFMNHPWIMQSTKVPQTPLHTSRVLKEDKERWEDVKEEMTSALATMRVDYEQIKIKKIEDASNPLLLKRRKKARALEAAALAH

Compound | IC50
CN1CC(C)(NC(=O)c2ccc3c(c2)Cn2cc(-c4ccc(C#N)cc4)cc2-c2nccn2-3)C1 [Example 129] | 0.1 to 0.2 µM
CN(C)C[C@H]1CC(=O)N(c2ccc3c(c2F)Cn2cc(-c4ccc(C#N)cc4)cc2-c2nccn2-3)C1 [Example 92, (R)-4-(7-(4-((Dimethylamino)methyl)-2-oxopyrrolidin-1-yl)-8-fluoro-9H-benzo[e]imidazo[2,1-c]pyrrolo[1,2-a][1,4]diazepin-12-yl)benzonitrile] | 0.05 to 0.1 µM
CN(C)CC1CCN(C(=O)c2ccc3c(c2)Cn2cc(-c4ccc(C#N)cc4)cc2-c2nccn2-3)C1 (stereo not shown) [Example 112, 4-(7-(3-((dimethylamino)methyl)pyrrolidine-1-carbonyl)-9H-benzo[e]imidazo [2,1-c]pyrrolo[1,2-a][1,4]diazepin-12-yl)benzonitrile] | 0.05 to 0.1 µM
CN(CC1CNC1)C(=O)c1ccc2c(c1)Cn1cc(-c3ccc(C#N)cc3)cc1-c1nccn1-2 [Example 135] | 0.1 to 0.2 µM
CN(C)[C@@H]1CC[C@@H](NC(=O)c2ccc3c(c2)Cn2cc(-c4ccc(C#N)cc4)cc2-c2nccn2-3)C1 [Example 123] | 0.3 to 0.4 µM
CN(C)C[C@@H]1CCCN1C(=O)c1ccc2c(c1)Cn1cc(-c3ccc(C#N)cc3)cc1-c1nccn1-2 [Example 114] | 0.1 to 0.2 µM
CN(C)[C@H]1C[C@@H](NC(=O)c2ccc3c(c2)Cn2cc(-c4ccc(C#N)cc4)cc2-c2nccn2-3)C1 [Example 127] | 0.1 to 0.2 µM
CN1CCCC1CNC(=O)c1ccc2c(c1)Cn1cc(-c3ccc(C#N)cc3)cc1-c1nccn1-2 (stereo not shown) [Example 106] | 0.1 to 0.2 µM

Other lines, results leading:

IC50 | Compound
< 0.05 µM | N#Cc1ccc(-c2cc3n(c2)Cc2cc(N4C[C@@H](C5(N)CC5)CC4=O)ccc2-n2ccnc2-3)cc1 (stereo in doubt) [Example 49, (S)-4-(7-(4-(1-aminocyclopropyl)-2-oxopyrrolidin-1-yl)-9H-benzo[e]imidazo [2,1-c]pyrrolo[1,2-a][1,4]diazepin-12-yl)benzonitrile]
0.05 to 0.1 µM | N#Cc1ccc(-c2cc3n(c2)Cc2cc(N4C[C@@H](N)CC4=O)ccc2-n2ccnc2-3)cc1 [Example 32, (S)-4-(7-(4-Amino-2-oxopyrrolidin-1-yl)-9H-benzo[e]imidazo[2,1-c]pyrrolo [1,2-a][1,4]diazepin-12-yl)benzonitrile]
< 0.05 µM | CN1CC[C@H](NC(=O)c2ccc3c(c2)Cn2cc(-c4ccc(C#N)cc4)cc2-c2nccn2-3)C1 [Example 102]
0.05 to 0.1 µM | CN1CC(N(C)C(=O)c2ccc3c(c2)Cn2cc(-c4ccc(C#N)cc4)cc2-c2nccn2-3)C1 [Example 132, 12-(4-Cyanophenyl)-N-methyl-N-(1-methylazetidin-3-yl)-9H-benzo[e]imidazo [2,1c]pyrrolo[1,2-a][1,4]diazepine-7-carboxamide]
0.2 to 0.3 µM | CN1CC[C@@H](N(C)C(=O)c2ccc3c(c2)Cn2cc(-c4ccc(C#N)cc4)cc2-c2nccn2-3)C1 [Example 134]
0.05 to 0.1 µM | CN1CCC2(CC1)CN(C(=O)c1ccc3c(c1)Cn1cc(-c4ccc(C#N)cc4)cc1-c1nccn1-3)C2 [Example 131]
0.2 to 0.3 µM | CN(C)C1CN(C(=O)c2ccc3c(c2)Cn2cc(-c4ccc(C#N)cc4)cc2-c2nccn2-3)C1 [Example 104]
0.05 to 0.1 µM | CN(C)[C@@H]1CCCN(C(=O)c2ccc3c(c2)Cn2cc(-c4ccc(C#N)cc4)cc2-c2nccn2-3)C1 [Example 124]
< 0.05 µM | CC1(CN2C(=O)CN(c3ccc4c(c3)Cn3cc(-c5ccc(C#N)cc5)cc3-c3nccn3-4)C2=O)CNC1 [Example 64, 4-(7-(3-((3-Methylazetidin-3-yl)methyl)-2,4-dioxoimidazolidin-1-yl)-9H-benzo[e]imidazo[2,1-c]pyrrolo[1,2-a][1,4]diazepin-12-yl)benzonitrile]
< 0.05 µM | CC(C)(N)C1CN(c2ccc3c(c2)Cn2cc(-c4ccc(C#N)cc4)cc2-c2nccn2-3)C(=O)O1 (stereo not shown) [Example 20]
0.05 to 0.1 µM | N#Cc1ccc(-c2cc3n(c2)Cc2cc(N4C[C@@H](CN)OC4=O)ccc2-n2ccnc2-3)cc1 [Example 2]
